Literature values, collected in patent US12409155B1, “Ready to use LET formulations” (QuVa Pharma, Inc., priority 2021, dated 2025).

Details: Handbook

## O=C(O)CC(O)(CC(=O)O)C(=O)O [citric acid]
  pKa2: 4.76
